Assay results reported in patent US20080255106A1, “Novel 2-Phenyl-Imidazo[4,5-B]Pyridine Derivatives as Inhibitors of Glycogen Synthase Kinase for the Treatment of Dementia and Neurodegenerative Disorders” (AstraZeneca AB, priority 2005, published 2008).
Structures can show the parent of a compound that is named as a salt.

Molecular target: T1, GSK3β (Homo sapiens, UniProt P49841)
T1 construct: purchased Dundee University, UK
Assay: GSK3β Scintillation Proximity Assay (ATP competition)
Type: biochemical
Conditions: recombinant human GSK3β, SPA, 1 μM ATP, Km of ATP 20 μM used to calculate Ki
Description: Determination of ATP Competition in Scintillation Proximity GSK3β Assay.
GSK3β Scintillation Proximity Assay.
The competition experiments were carried out in duplicate with 10 different concentrations of the inhibitors in clear-bottom microtiter plates (Wallac, Finland). A biotinylated peptide substrate, Biotin-Ala-Ala-Glu-Glu-Leu-Asp-Ser-Arg-Ala-Gly-Ser(PO3H2)-Pro-Gln-Leu (AstraZeneca, Lund), was added at a final concentration of 1 μM in an assay buffer containing 1 mU recombinant human GSK30 (Dundee University, UK), 12 mM morpholinepropanesulfonic acid (MOPS), pH 7.0, 0.3 mM EDTA, 0.01% β-mercaptoethanol, 0.004% Brij 35 (a […] detergent), 0.5% glycerol and 0.5 μg BSA/25 μl. The reaction was initiated by the addition of 0.04 μCi [γ-^33P]ATP (Amersham, UK) and unlabelled ATP at a final concentration of 1 μM and assay volume of 25 μl. After incubation for 20 minutes at room temperature, each reaction was terminated by the addition of 25 μl stop solution containing 5 mM EDTA, 50 μM ATP, 0.1% Triton X-100 and 0.25 mg streptavidin coated Scintillation Proximity Assay (SPA) beads (Amersham, UK). After 6 hours the radioactivity was determined in a liquid scintillation counter (1450 MicroBeta Trilux, Wallac). The inhibition curves were analysed by non-linear regression using GraphPad Prism, USA. The Km value of ATP for GSK3, used to calculate the inhibition constants (Ki) of the various compounds, was 20 μM.

T1 sequence (P49841 whole entry): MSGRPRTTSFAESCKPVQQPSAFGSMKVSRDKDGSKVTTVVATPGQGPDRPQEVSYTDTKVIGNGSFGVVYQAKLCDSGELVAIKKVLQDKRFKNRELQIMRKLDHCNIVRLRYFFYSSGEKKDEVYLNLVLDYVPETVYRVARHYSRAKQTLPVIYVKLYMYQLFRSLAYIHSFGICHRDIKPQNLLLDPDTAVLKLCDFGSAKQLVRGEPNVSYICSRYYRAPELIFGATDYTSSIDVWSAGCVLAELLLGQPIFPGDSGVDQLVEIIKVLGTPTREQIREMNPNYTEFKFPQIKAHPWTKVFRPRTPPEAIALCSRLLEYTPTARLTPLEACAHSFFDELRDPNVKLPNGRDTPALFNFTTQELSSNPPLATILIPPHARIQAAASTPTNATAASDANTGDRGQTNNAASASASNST

Row | Ki [nM] | Compound
1 | 17 | COCCCNC(=O)c1ccnc2[nH]c(-c3ccc(C(F)(F)F)cc3)nc12 [Example 3, N-(3-Methoxypropyl)-2-[4-(trifluoromethyl)phenyl]-3H-imidazo[4,5-b]pyridine-7-carboxamide hydrochloride]
2 | 51 | COCCCNC(=O)c1ccnc2[nH]c(-c3ccc(C(=O)N4CCN(C)CC4)cc3)nc12 [Example 6, N-(3-Methoxypropyl)-2-{4-[(4-methylpiperazin-1-yl)carbonyl]phenyl}-3H-imidazo[4,5-b]pyridine-7-carboxamide hydrochloride]
3 | 36 | COCCCNC(=O)c1ccnc2[nH]c(-c3ccc(C(=O)N4CCOCC4)cc3)nc12 [Example 7, N-(3-Methoxypropyl)-2-[4-(morpholin-4-ylcarbonyl)phenyl]-3H-imidazo[4,5-b]pyridine-7-carboxamide hydrochloride]
4 | 8 | COCCCNC(=O)c1ccnc2[nH]c(-c3cccc(COCC(F)(F)C(F)F)c3)nc12 [Example 4, N-(3-Methoxypropyl)-2-{3-[(2,2,3,3-tetrafluoropropoxy)methyl]phenyl}-3H-imidazo[4,5-b]pyridine-7-carboxamide hydrochloride]
